# Test results as given in US8362008B2 (The University Of Edinburgh, priority 2007, dated 2013).
# Target: T1, human 11β-HSD1 enzyme (Homo sapiens, UniProt P28845)
# T1 construct: stably transfected with a construct containing the full-length gene coding for the human 11β-HSD1 enzyme; expressed in transfected cells; host or cells: HEK293 (HEK293/11β-HSD1 cells)
# Assay: Cellular in vitro 11β-HSD1 enzyme inhibition assay (SPA, HEK293/11β-HSD1 cells)
# Assay type: cell-based
# Settings: HEK293, less than or equal to 1000 nM (1 μM)
# Procedure: Cellular In Vitro 11β-HSD1 Enzyme Inhibition Assay
# Compounds were assessed by a Scintillation Proximity Assay (SPA) performed according to the following protocol:
# HEK293 cells were stably transfected with a construct containing the full-length gene coding for the human 11β-HSD1 enzyme to create HEK293/11β-HSD1 cells. Cells were routinely cultured in DMEM containing 10% calf foetal serum, 1% glutamine, and 1% penicillin and streptomycin. Prior to assay, cells were plated at 2×10^4 cells/well in 96-well poly-D-Lys coated flat-bottomed microplates and incubated in 5% CO2, 95% O2 at 37° C. for 24 hours. The media in each well was removed immediately before assay.
# Compounds to be tested were dissolved in DMSO at 10 mM and serially diluted into water containing 10% DMSO. Diluted compounds at a volume of 10 μL were added to wells of a 96-well V-bottomed microplate. […] This solution (100 μL/well) was transferred to the plate containing the cells. The plate was then incubated in 5% CO2, 95% O2 at 37° C. for 2 hours.
# Following this incubation, 50 μL of the assay solution was transferred to each well of a 96-well scintillation microplate. A mixture consisting of anti-mouse YSi SPA beads, pre-mixed with anti-cortisol antibody in assay buffer (50 mM Tris.HCl, pH 7.0; 300 mM NaCl; 1 mM EDTA, 5% glycerol) was prepared and 50 μL added to each well of the scintillation microplate. An adhesive strip was applied to the microplate and the plate gently shaken for at least 2 hours at room temperature, and then spun briefly on a low speed centrifuge. The plate was read on a scintillation counter suitable for 96-well microplates. For the calculation of percentage inhibition, a series of wells were added to the plate that represented the assay maximum and the assay minimum: one set that contained substrate without cells (mimimum) and another set that contained substrate and cells without any compound (maximum).
# The calculation of median inhibitory concentration (IC50) values for the compounds was performed using GraphPad Prism® software. Dose-response curves for each compound were plotted as fractional inhibition and data fitted to the four parameter logistic equation.
# T1 sequence (P28845 whole entry): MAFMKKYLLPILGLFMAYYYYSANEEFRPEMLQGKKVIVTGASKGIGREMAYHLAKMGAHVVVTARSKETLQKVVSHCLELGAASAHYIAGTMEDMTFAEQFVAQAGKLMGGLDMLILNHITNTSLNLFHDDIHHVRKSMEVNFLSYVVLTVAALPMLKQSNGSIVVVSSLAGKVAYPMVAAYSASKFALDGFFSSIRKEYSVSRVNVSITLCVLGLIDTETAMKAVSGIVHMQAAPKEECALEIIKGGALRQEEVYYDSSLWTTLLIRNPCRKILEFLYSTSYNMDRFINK
row,Structure (SMILES),IC50 [nM]
1,CCCCCc1cc(C(=O)N2CC3(C)CC2CC(C)(C)C3)cs1 (stereo not shown) [AA-017],≤ 1000
2,"O=C(c1csc(C2CCOCC2)c1)N1CCC[C@@H]2CCCC[C@@H]21 (single isomer, unassigned) [CC-140, cis-(octahydro-quinolin-1-yl)-[5-(tetrahydro-pyran-4-yl)-thiophen-3-yl]-methanone]",≤ 1000
3,CCc1cc(C(=O)N2CCCC(C)(C)CC2)cs1 [AA-019],≤ 1000
4,CC1(C)CC2CC(C)(CN2C(=O)c2csc(C3=CCNCC3)c2)C1 (stereo not shown) [CC-074],≤ 1000
5,O=C(c1csc(C2CCSCC2)c1)N1CCCC2CCCCC21 (stereo not shown) [CC-136],≤ 1000
6,CC1(C)CC2CC(C)(CN2C(=O)c2csc(CC(F)(F)F)c2)C1 (stereo not shown) [AA-018],≤ 1000
7,CS(=O)(=O)NCCC(=O)N1CC=C(c2cc(C(=O)N3CCCC4CCCCC43)cs2)CC1 (stereo not shown) [CC-091],≤ 1000
8,O=C(c1cc(C2CCOCC2)sc1Cl)N1CCC2CCCCC2C1 (stereo not shown) [CC-031],≤ 1000
9,"O=C(c1csc(C2=CCNCC2)c1)N1CCC[C@@H]2CCCC[C@@H]21 (relative stereo) [CC-046, cis-(octahydro-quinolin-1-yl)-[5-(1,2,3,6-tetrahydro-pyridin-4-yl)-thiophen-3-yl]-methanone]",≤ 1000
10,O=C(c1csc(C2CCOCC2)c1)N1CCCC2CCCCC21 (stereo not shown) [CC-028],≤ 1000
11,CCc1cc(C(=O)N2CCCCCC2)c(Br)s1 [AA-005],≤ 1000
12,COCc1cc(C(=O)N2CC3(C)CC2CC(C)(C)C3)cs1 (stereo not shown) [BB-006],≤ 1000
13,CCc1cc(C(=O)N2CCCCCC2)c(Cl)s1 [AA-004],≤ 1000
14,"O=C(c1csc(C2CCNCC2)c1)N1CCC[C@@H]2CCCC[C@@H]21 (single isomer, unassigned) [CC-159, cis-(octahydro-quinolin-1-yl)-(5-piperidin-4-yl-thiophen-3-yl)-methanone]",≤ 1000
15,O=C1CCCN1c1cc(C(=O)N2CCCC3CCCCC32)cs1 (stereo not shown) [CC-049],≤ 1000
16,CC(=O)N1CC=C(c2cc(C(=O)N3CCCC4CCCCC43)cs2)CC1 (stereo not shown) [CC-086],≤ 1000

# Second part, the compound after the results:
row,IC50 [nM],Structure (SMILES)
1,≤ 1000,O=C(C1CC1)N1CCC(c2cc(C(=O)N3CCCC4CCCCC43)cs2)CC1 (stereo not shown) [CC-099]
2,≤ 1000,Cn1cncc1C(=O)N1CCC(c2cc(C(=O)N3CCCC4CCCCC43)cs2)CC1 (stereo not shown) [CC-084]
3,≤ 1000,CC(=O)N1CCC(c2cc(C(=O)N3CCCC(C)(C)CC3)cs2)CC1
4,≤ 1000,O=C(CN1CCOCC1)N1CCC(c2cc(C(=O)N3CCCC4CCCCC43)cs2)CC1 (stereo not shown) [CC-059]
5,≤ 1000,"O=C(c1csc(C2CCNCC2)c1)N1CCCCC1c1ccccc1 (stereo not shown) [CC-017, (2-Phenyl-piperidin-1-yl)-(5-piperidin-4-yl-thiophen-3-yl)methanone]"
6,≤ 1000,O=C(NCCCO)N1CCC(c2cc(C(=O)N3CCCC4CCCCC43)cs2)CC1 (stereo not shown) [CC-161]
7,≤ 1000,COCCNC(=O)N1CCC(c2cc(C(=O)N3CCCC4CCCCC43)cs2)CC1 (stereo not shown) [CC-164]

# Same assay, conditions: HEK293, more than 1000 nM (1.0 μM) and less than or equal to 30 μM
row,Structure (SMILES),IC50 [nM]
1,CCc1cc(C(=O)N2CCC3CCCCC3C2)cs1 (stereo not shown) [AA-010],1000 to 30000
2,"CC(=O)N1CC=C(c2cc(C(=O)N3CCCCCC3)cs2)CC1 [CC-016, 1-{4-[4-(Azepane-1-carbonyl)-thiophen-2-yl]-3,6-dihydro-2H-pyridin-1-yl}-ethanone]",1000 to 30000
3,"O=C(c1csc(C2CCNCC2)c1)N1CCC[C@@H]2CCCC[C@H]21 (relative stereo) [CC-034, trans-(Octahydro-quinolin-1-yl)-(5-piperidin-4-yl-thiophen-3-yl)-methanone]",1000 to 30000
4,CC1(C)CCCCN(C(=O)c2csc(C3=CCNCC3)c2)C1 [CC-125],1000 to 30000
5,O=C(c1csc(C2CCOCC2)c1)N1CCC2CCCCC2C1 (stereo not shown) [CC-029],1000 to 30000
6,CC1(C)CCCN(C(=O)c2csc(C3=CCNCC3)c2)CC1 [CC-124],1000 to 30000
7,COCc1cc(C(=O)N2CCCCCC2)cs1 [BB-005],1000 to 30000
8,"O=C(c1csc(C2CCNCC2)c1)N1CCCC2CCCCC21 (single isomer, unassigned) [CC-045, trans-(Octahydro-quinolin-1-yl)-(5-piperidin-4-yl-thiophen-3-yl)-methanone]",1000 to 30000

# Results, then the compound that gave them:
row,IC50 [nM],Structure (SMILES)
1,1000 to 30000,CC(C)OC(=O)N1CCC(c2cc(C(=O)N3CCCC4CCCCC43)cs2)CC1 (stereo not shown) [CC-067]
2,1000 to 30000,O=C(c1csc(C2CCNCC2)c1)N1CCCC2(CCCCC2)C1 [CC-079]
3,1000 to 30000,CN(C)CCNC(=O)N1CCC(c2cc(C(=O)N3CCCC4CCCCC43)cs2)CC1 (stereo not shown) [CC-162]
4,1000 to 30000,CN(C)CC(=O)N1CCC(c2cc(C(=O)N3CCCC4CCCCC43)cs2)CC1 (stereo not shown) [CC-063]
5,1000 to 30000,O=C(CCn1ccnc1)N1CCC(c2cc(C(=O)N3CCCC4CCCCC43)cs2)CC1 (stereo not shown) [CC-117]
6,1000 to 30000,O=C(CN1CCOCC1)N1CCC(c2cc(C(=O)N3CCCC4CCCCC43)cs2)CC1 (stereo not shown) [CC-060]
7,1000 to 30000,O=C(c1ccno1)N1CCC(c2cc(C(=O)N3CCCC4CCCCC43)cs2)CC1 (stereo not shown) [CC-052]
8,1000 to 30000,"CC1(C)CCCN(C(=O)c2csc(C3CCNCC3)c2)CC1 [CC-023, (4,4-dimethyl-azepan-1-yl)-(5-piperidin-4-yl-thiophen-3-yl)-methanone]"
9,1000 to 30000,CC(C)S(=O)(=O)N1CCC(c2cc(C(=O)N3CCCC4CCCCC43)cs2)CC1 (stereo not shown) [CC-104]
10,1000 to 30000,CC1(C)CCCN(C(=O)c2csc(C3CCCNC3)c2)C1 (stereo not shown) [CC-014]
11,1000 to 30000,O=C(OCc1ccccc1)N1CCC(c2cc(C(=O)N3CCCC4(CCCCC4)C3)cs2)CC1 [CC-078]
12,1000 to 30000,O=C(c1csc(C2CCN(S(=O)(=O)C3CC3)CC2)c1)N1CCCC2CCCCC21 (stereo not shown) [CC-093]
13,1000 to 30000,O=C(CCCN1CCCCC1)N1CCC(c2cc(C(=O)N3CCCC4CCCCC43)cs2)CC1 (stereo not shown) [CC-082]
14,1000 to 30000,O=C(c1csc(C2CCN(S(=O)(=O)c3ccccc3)CC2)c1)N1CCCC2CCCCC21 (stereo not shown) [CC-092]
15,1000 to 30000,"O=C(c1csc(C2CCN(c3ncccn3)CC2)c1)N1CCC[C@@H]2CCCC[C@@H]21 (relative stereo) [CC-121, cis-(Octahydro-quinolin-1-yl)-[5-(1-pyrimidin-2-yl-piperidin-4-yl)-thiophen-3-yl]-methanone]"
16,1000 to 30000,"CNCC(=O)N1CCC(c2cc(C(=O)N3CCC[C@@H]4CCCC[C@@H]43)cs2)CC1 (relative stereo) [CC-055, cis-2-Methylamino-1-{4-[4-(octahydro-quinoline-1-carbonyl)-thiophen-2-yl]-piperidin-1-yl}-ethanone]"
17,1000 to 30000,Cc1cc(C(=O)N2CCC(c3cc(C(=O)N4CCCC5CCCCC54)cs3)CC2)no1 (stereo not shown) [CC-109]
18,1000 to 30000,"O=C(OCc1ccccc1)N1CCC(c2cc(C(=O)N3CCCCCC3)c(Cl)s2)CC1 [CC-009, 4-[4-(Azepane-1-carbonyl)-5-chloro-thiophen-2-yl]-piperidine-1-carboxylic acid benzyl ester]"
19,1000 to 30000,CC(=O)N1CCC(c2cc(C(=O)N3CCN4CCCCC4C3)cs2)CC1 (stereo not shown) [CC-037]
20,1000 to 30000,O=C(c1csc(C2CCN(c3ccccn3)CC2)c1)N1CCCC2CCCCC21 (stereo not shown) [CC-120]
21,1000 to 30000,COC(=O)N1CCC(c2cc(C(=O)N3CCCC(C)(C)CC3)cs2)CC1 [CC-094]
22,1000 to 30000,O=C(CCN1CCCCC1)N1CCC(c2cc(C(=O)N3CCCC4CCCCC43)cs2)CC1 (stereo not shown) [CC-062]
23,1000 to 30000,O=C(c1ccccc1)N1CCC(c2cc(C(=O)N3CCCC4CCCCC43)cs2)CC1 (stereo not shown) [CC-110]
24,1000 to 30000,O=C(c1csc(COc2ccccc2)c1)N1CCCCC1 [BB-001]
